According to patent publication US5622944A, “Testosterone prodrugs for improved drug delivery” (Affymax Technologies N.V., priority 1995, dated 1997):
Where a name gives a salt, the structure may show the parent alone.

How the values were obtained:
in vitro [1] = type: in vitro ADME; details: 37° C.; for half-life: human, serum
Method: The hydrolytic activity of the sterol prodrug may be evaluated by studies of the chemical or enzymatic conversion of the prodrug to the unmodified parent compound, as described in Example 26.
Generally, the sterol/chemical modifier complex is dissolved in a minimum amount of a suitable solvent, such as ethanol, and the resulting solution is added to a sample of human serum. Following incubation, aliquots are then removed at various time points and analyzed to determine the extent of hydrolysis. Table I herein lists the representative serum half-lives of a number of testosterone prodrugs according to the present invention.
The rates of conversion are readily determined, for example by spectrophotometric methods or by gas-liquid or high performance liquid chromatography. Half-lives and other kinetic parameters may then be calculated using standard techniques.
Determination of Testosterone Prodrug Hydrolysis in Serum
Stock solutions (6 mM) of the testosterone prodrugs were prepared in ethanol (dissolution was accomplished by vortexing, sonication, or warming at 37° C., as needed). If required for dissolution, one drop of a co-solvent such as dimethylsulfoxide, dimethylformamide or methanol was added. (Acetonitrile is undesirable because it deactivates the serum enzymes).
HPLC separation methods were established for each study by dilution of the above stock solutions (6 μl) in acetonitrile (1 ml) to form 36 μM solutions. Samples (10 μl) were injected onto a Nucleosil 5C8 column (250×4 mm ID) fitted with an additional guard column (11×4 mm ID) and eluted with a mobile phase of approximately 65% HPLC grade water and 35% trifluoroacetic acid in acetonitrile (0.1% TFA in acetonitrile). Exact proportions of the mobile phase eluents were adjusted in each case to give optimum separation and run times.
Freshly defrosted human serum (3 ml, Sigma) was warmed at 37° C. for five minutes and then the testosterone prodrug stock solution (60 μl) was added with vortexing. […] The aliquots were added to 800 μl of 2% zinc sulfate solution in a 1.5 ml disposable microcentrifuge tube, vortexed immediately and centrifuged at 14,000 RPM for 3 minutes. The supernatants (10 μl) were injected onto the HPLC and peak areas used to determine the percent of parent drug formed or percent of prodrug remaining. Serum blanks were prepared similarly by addition of serum to the zinc sulfate solution, followed by centrifugation. Initial (time=0) samples were prepared by adding serum to the zinc sulfate solution, followed by addition of the complex and separation by centrifugation. The time=0 samples, as well as the original stock solutions, were also used to assess the stability of the complex in the absence of enzyme. Half-lives were determined using the following equation : […]
and plotting time (x ordinate) versus the natural logarithm of percent remaining prodrug (y ordinate) to obtain the slope (m) and the y intercept (b).

[2] = type: in vitro ADME, mouse; details: murine skin, active cells (ETm), 10 mM donor, 100 uA/cm^2, 6 h, 32° C.
Method: In vitro electrotransport of testosterone/chemical modifier complexes across hairless mouse skin was evaluated as described in Example 28. The experiments were conducted using modified Valia-Chien cells having 1.0 ml donor and 2.5 ml receptor cells. Anodic transport was carried out using a silver wire-based salt bridge in the donor compartment and a silver chloride cathode in the receptor. Cathodic transport was effected by reversing the electrode configuration. The cells were connected in series and a constant current and temperature were supplied to each cell.
After a predetermined period of time (6 h), aliquots were removed from the receiver phase for immediate analysis by HPLC to determine cumulative flux.
The electrotransport of testosterone/chemical modifier complexes was achieved using modified Valia-Chien cells (1.0 ml donor and 2.5 ml receptor cells). Full thickness, hairless mouse skin (Charles River Labs, Wilmington, Mass.) was soaked for one hour in phosphate buffered saline (PBS, pH=7.4) before placing between each compartment (dermal side of skin facing toward receptor). One passive (P1:data) and two or more (ETm :data) active cells were used to screen each compound.
A 10 mM (1 ml) aqueous solution of testosterone drug/prodrug was placed in the donor (unstirred) compartment and the receptor (stirred) was filled with 2.5 ml of PBS. In order to check for egress due to e.g. damaged skin, a zero hour sample of receptor ([…]) was taken one half hour after the drug solution was placed in the donor compartment. Replacement fluid of equal sample volume was added to the receptor compartment immediately after samples were taken.
Anodic electrotransport was achieved using a silver wire (immersed in a polyvinylalcohol-based salt bridge to minimize junction potential) in the donor compartment and a AgCl cathode in the receptor. […] The electrotransport cells were connected in series and constant current (100 uA/cm^2, […] for a skin area of 0.64 cm^2) and temperature (32° C.) were supplied to each cell. After six hours of active/passive transport, aliquots (200 ul) of the receptor were sampled and immediately analyzed by HPLC.
A standard plot of peak area and concentration for each compound was constructed using HPLC. The peak areas of the samples were determined and the concentrations calculated using the standard data. Cumulative flux was calculated using Quickbasic and reported in nmol/cm^2 /hr.

in vitro [3] = type: cell-based, human; details: human, dermal fibroblasts, MTT; for CC50 at 2 h: IC50 2 h (cytotoxicity), 2 h incubation; for CC50 at 16 h: IC50 16 h (cytotoxicity), 16 h incubation
Method: As discussed above, the chemical modifier, when present in the subject in its free or released form, and in appropriately administered amounts, should preferably be non-toxic. Additionally, any further in vivo degradation products of the chemical modifier should be non-toxic, as well. Table 2 provides in vitro relative cytotoxicity data for a number of testosterone/chemical modifier complexes, prepared in accordance with the invention. The cytotoxicity assessment was carried out by examining the viability of human dermal fibroblasts in the presence of a number of testosterone/chemical modifier complexes in accordance with the present invention. Details of the experimental protocol are summarized in Example 27.
The viability of human dermal fibroblasts in the presence of the 17-hydroxy sterol/chemical modifier compounds was assayed using MTT (3-[4,5-dimethylthiazol-2-yl]-2,5-diphenyltetrazolium bromide) reduction to formazan by mitochondrial enzymes as an indicator of cytotoxicity (Swisher, et al.). Confluent fibroblast cells were incubated for 2 or 16 hours in the presence of increasing concentrations of drug complex. At the end of the incubation period, medium was replaced for 4 hours by medium containing the tetrazolium salt, MTT. Metabolism of MTT to a blue formazan was quantitated by spectrophotometry at 540 nm.

[4] = Water solubility (H2O sol); details: for solubility: H2O sol

Compound | half-life (in vitro [1]; HPLC) | Flux, active electrotransport (ET) [2] | CC50 at 2 h (in vitro [3]) | CC50 at 16 h (in vitro [3]) | Degradation (Degradation (%/d)) | solubility [4] | further results
CN(C)CCc1ccc(OC(=O)O[C@H]2CC[C@H]3[C@@H]4CCC5=CC(=O)CC[C@]5(C)[C@H]4CC[C@]23C)cc1 [Code 3.3, testosterone-17β-hordenine carbonate] | 8.2 h | – | – | – | – | – | –
COC(=O)[C@H](COC(=O)O[C@H]1CC[C@H]2[C@@H]3CCC4=CC(=O)CC[C@]4(C)[C@H]3CC[C@]12C)N(C)C [Code 3.5] | 0.783 h | – | – | – | – | – | –
CCCCCCCCCCCCCCCC(=O)O[C@H](CC(=O)O[C@H]1CC[C@H]2[C@@H]3CCC4=CC(=O)CC[C@]4(C)[C@H]3CC[C@]12C)C[N+](C)(C)C [Code 1.1, testosterone-17β-(O-palmitoyl-L-carnitinate), chloride salt] | – | 0 nmol/cm^2 /hr | < 10 µM | < 10 µM | 0 %/d | 26 mg/mL | –
C[C@]12CC[C@H]3[C@@H](CCC4=CC(=O)CC[C@@]43C)[C@@H]1CC[C@@H]2OC(=O)c1ccccn1 [Code 3.9, testosterone-17β-picolinate, hydrochloride salt] | 12.2 h | – | – | – | – | – | –
C[C@]12CC[C@H]3[C@@H](CCC4=CC(=O)CC[C@@]43C)[C@@H]1CC[C@@H]2OC(=O)c1cccnc1 [Code 2.7, Testosterone-17β-nicotinate] | ~840 h | – | > 1000 µM | > 1000 µM | – | – | H2O sol [4]: 0.0 mg/mL
C[C@]12CC[C@H]3[C@@H](CCC4=CC(=O)CC[C@@]43C)[C@@H]1CC[C@@H]2OC(=O)OCOC(=O)CC[N+](C)(C)C [Code 2.1, testosterone-17β-(N,N,N-trimethyl-β-alaninyloxymethyl)carbonate,iodide salt] | 0.0106 h | – | – | – | – | – | –
C[C@]12CC[C@H]3[C@@H](CCC4=CC(=O)CC[C@@]43C)[C@@H]1CC[C@@H]2OC(=O)OCOC(=O)CNC(=O)OCOC(=O)CCCCC[N+](C)(C)C [Code 1.8] | 0.0667 h | – | – | – | – | – | –
C[C@]12CC[C@H]3[C@@H](CCC4=CC(=O)CC[C@@]43C)[C@@H]1CC[C@@H]2OC(=O)C[N+](C)(C)C [Code 2.2, testosterone-17β-betainoyl ester, bromide salt] | 14 h | 7.9 ± 4.1 nmol/cm^2 /hr | 2300 µM | 650 µM | 0 %/d | 10 mg/mL | –
CC(=O)OC(CC(=O)O[C@H]1CC[C@H]2[C@@H]3CCC4=CC(=O)CC[C@]4(C)[C@H]3CC[C@]12C)C[N+](C)(C)C (stereo partly shown) [Code 1.2] | 96 h | 7.3 ± 5.8 nmol/cm^2 /hr | 91.6 µM | 34.4 µM | 0 %/d | 22 mg/mL | –
C[C@]12CC[C@H]3[C@@H](CCC4=CC(=O)CC[C@@]43C)[C@@H]1CC[C@@H]2OC(=O)CCCC[N+](C)(C)C [Code 2.4] | ~720 h | 2.7 ± 1.1 nmol/cm^2 /hr | 609 µM | 568 µM | 0 %/d | 18 mg/mL | –
C[C@]12CC[C@H]3[C@@H](CCC4=CC(=O)CC[C@@]43C)[C@@H]1CC[C@@H]2OC(=O)CCC(=O)NCCS(=O)(=O)O [Code 4.2, testosterone-17β-[taurinesuccinamide ester], triethvlammonium salt] | 24 h | 2.8 ± 3.7 nmol/cm^2 /hr | – | – | – | – | –
CN(C)CCCC(=O)O[C@H]1CC[C@H]2[C@@H]3CCC4=CC(=O)CC[C@]4(C)[C@H]3CC[C@]12C [Code 3.1, testosterone-17β-[4-N,N-dimethylaminobutyrate], hydrochloride salt] | – | 0.7 ± 0.2 nmol/cm^2 /hr | 255 µM | 145 µM | 0 %/d | 22 mg/mL | –
CN(C)CCCC(=O)O[C@H]1CC[C@H]2[C@@H]3CCC4=CC(=O)CC[C@]4(C)[C@H]3CC[C@]12C [Code 3.0] | – | – | – | – | – | – | half-life (in vitro [1]; footnote 2: prodrug remaining, ~50% testosterone and ~50% unknown formed): 106 h
C[C@]12CC[C@H]3[C@@H](CC=C4C=C(OC(=O)CC[N+](C)(C)C)CC[C@@]43C)[C@@H]1CC[C@@H]2OC(=O)OCC[N+](C)(C)C [Code 4.4, testosterone-3-enol, 17β-ol 3-(N,N,N-trimethyl-β-alanine ester) 17-(choline carbonate), dibromide salt] | – | 0.2 ± 0.0 nmol/cm^2 /hr | – | – | – | – | half-life (in vitro [1]; footnote 1: prodrug remaining, no testosterone formed): 0.0383 h
C[n+]1ccccc1C(=O)O[C@H]1CC[C@H]2[C@@H]3CCC4=CC(=O)CC[C@]4(C)[C@H]3CC[C@]12C [Code 4.0] | – | – | 330 µM | 41.1 µM | – | 0.9 mg/mL | half-life (in vitro [1]; HSO4^- salt): 1.08 h; half-life (in vitro [1]; iodide (I--) salt): 1.17 h
C[C@]12CC[C@H]3[C@@H](CCC4=CC(=O)CC[C@@]43C)[C@@H]1CC[C@@H]2O [Code 1.0, 17β-hydroxyandrost-4-en-3-one, reference compound] | – | – | > 1000 µM | 423 µM | 0 %/d | – | H2O sol [4]: 0.0 mg/mL
C[C@]12CC[C@H]3[C@@H](CC=C4C=C(OC(=O)CCC[N+](C)(C)C)CC[C@@]43C)[C@@H]1CC[C@@H]2OC(=O)CCC[N+](C)(C)C [Code 4.3, testosterone-3-enol, 17β-ol bis[4-(N,N,N-trimethylammonio)butyrate], dibromide salt] | – | 1.0 ± 0.6 nmol/cm^2 /hr | – | – | – | – | half-life (in vitro [1]; footnote 3: prodrug remaining, 60% [2.3] formed, no other products seen): 7.8 h
COC(=O)[C@H](COC(=O)O[C@H]1CC[C@H]2[C@@H]3CCC4=CC(=O)CC[C@]4(C)[C@H]3CC[C@]12C)[N+](C)(C)C [Code 2.0, testosterone-17β-(N,N,N-trimethyl-L-serine methyl ester) carbonate, bromide salt] | – | – | – | – | – | – | Serum half-life (in vitro [1]; human serum, HPLC): 5 s
COC(=O)[C@H](COC(=O)O[C@H]1CC[C@H]2[C@@H]3CCC4=CC(=O)CC[C@]4(C)[C@H]3CC[C@]12C)[N+](C)(C)C [Code 1.9, testosterone-17β-(N,N,N-trimethyl-L-serine methyl ester) carbonate, tetrafluoroborate salt] | ~0.00125 h | – | – | – | – | – | –
